The text below walks through data of ChEMBL document CHEMBL3882724 (2013).

The term inhibition denotes the share of the control response that was lost under treatment. In general, half-life refers to the time needed for the level to fall by half in the phase considered. A word on the IC50: it is the concentration needed to halve the response being measured.

The target in data set [1] is T1, Steroid 17-alpha-hydroxylase/17,20 lyase (Homo sapiens, UniProt P05093).
T1 sequence (P05093 whole entry): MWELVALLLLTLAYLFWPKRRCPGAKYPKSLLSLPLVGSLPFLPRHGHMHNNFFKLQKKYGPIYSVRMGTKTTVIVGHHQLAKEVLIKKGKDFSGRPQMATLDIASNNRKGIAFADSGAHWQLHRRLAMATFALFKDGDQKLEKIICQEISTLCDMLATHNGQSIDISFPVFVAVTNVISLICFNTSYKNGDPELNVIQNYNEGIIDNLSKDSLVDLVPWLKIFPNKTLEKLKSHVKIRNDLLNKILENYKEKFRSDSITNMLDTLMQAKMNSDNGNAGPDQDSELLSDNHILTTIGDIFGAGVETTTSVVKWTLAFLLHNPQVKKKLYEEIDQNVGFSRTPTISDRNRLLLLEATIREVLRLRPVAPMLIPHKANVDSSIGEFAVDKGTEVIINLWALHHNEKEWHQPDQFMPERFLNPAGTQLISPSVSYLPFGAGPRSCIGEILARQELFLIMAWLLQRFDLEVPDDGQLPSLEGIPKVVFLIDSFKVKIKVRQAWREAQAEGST
Kind of data set: Inhibition of human C17,20-lyase in human testis microsomes at 10 nM using 17alpha-hydroxypregnenolone/[21-3H]-17alpha-hydroxypregnenolone as substrate after 30 mins by scintillation counting method relative to control. Conditions: 0.5 h.

Data set [2] in a line: Half life in rat liver microsomes at 1 uM by LC-MS/MS analysis.
The nature of data set [3]: Half life in human liver microsomes at 1 uM by LC-MS/MS analysis.
For data set [4], the target named is T1, Steroid 17-alpha-hydroxylase/17,20 lyase. Briefly: Inhibition of CYP17 in human testicular microsomes using 17alpha-hydroxypregnenolone as substrate assessed as decrease in DHEA levels after 90 mins by ELISA. The arrangement: species or system Testis. On the technique in general: In an ELISA, binding on a coated surface is turned into a signal by an enzyme label.

Structures are written as SMILES. Bounds are passed on as bounds.

For `COc1cncc(C2=CC[C@H]3[C@@H]4CC[C@H]5COC(=O)CC[C@]5(C)[C@H]4CC[C@]23C)c1`, in data set [1], the inhibition at 0.01 µM was ≥ 38%.

As to `C[C@]12CC[C@H]3[C@@H](CCN4C(=O)CC=CC[C@]34C)[C@@H]1CC=C2c1cccnc1`, the half-life at 1 µM in data set [2] and in data set [3] was 1 to 10 min each time. The inhibition at 0.01 µM in data set [1] was ≥ 38%.

`C[C@]12CCOC(=O)C[C@@H]1CC[C@@H]1[C@@H]2CC[C@]2(C)C(c3cccnc3)=CC[C@@H]12`: the IC50 in data set [4] is ≤ 11 nM. The half-life at 1 µM in data set [2] was in the range of 10 to 60 min; in data set [3], 1 to 50 min. Also, in data set [1], the inhibition at 0.01 µM is ≥ 38%.

Turning to `C[C@]12CC[C@H]3[C@@H](CCN4C(=O)C=CCC[C@]34C)[C@@H]1CC=C2c1cccnc1`, in data set [1], the inhibition at 0.01 µM was ≥ 38%.

For `C[C@]12CCC(=O)OC[C@@H]1CC[C@@H]1[C@@H]2CC[C@]2(C)C(c3cccnc3)=CC[C@@H]12`, in data set [4], the IC50 was ≤ 11 nM. For the same molecule, the half-life at 1 µM in data set [2] is 10 to 60 min; in data set [3], 1 to 50 min. The inhibition at 0.01 µM in data set [1] is ≥ 38%.

`CCOc1cncc(C2=CC[C@H]3[C@@H]4CC[C@H]5COC(=O)CC[C@]5(C)[C@H]4CC[C@]23C)c1`: the inhibition at 0.01 µM in data set [1] lay in the range of 3 to 38%.
